Test results: patent publication US10206398B2, “Five-membered C-N-attached aryl sulphide and aryl sulphoxide derivatives as pesticides” (BAYER CROPSCIENCE AKTIENGESELLSCHAFT, priority 2014, dated 2019)
Several values for one entry are separate records, joined by “and”; a condition that tells them apart may be missing. Identical values can stand only once. Like-named read-outs stand apart in the source and are kept apart here.

How the values were obtained:
[1] = log P determination by HPLC on reversed-phase columns (C 18), analogous to OECD Guideline 117; type: physicochemical; conditions: for logP[a]: method [a]; for logP[b]: method [b]; for chromatographic logP: reversed-phase HPLC column (C 18)
Method: The log P values were determined analogously to OECD Guideline 117 (EC Directive 92/69/EEC) by HPLC (high-performance liquid chromatography) using reversed-phase columns (C 18), by the following methods: [a] The LC-MS determination in the acidic range was effected at pH 2.7 with 0.1% aqueous formic acid and acetonitrile (contains 0.1% formic acid) as eluents; linear gradient from 10% acetonitrile to 95% acetonitrile. log P[a] is also referred to as log P(HCOOH). [b] LC-MS determination in the neutral range was effected at pH 7.8 with 0.001 molar aqueous ammonium hydrogencarbonate solution and acetonitrile as eluents; linear gradient from 10% acetonitrile to 95% acetonitrile. log P[b] is also referred to as log P(neutral). Calibration is effected with solutions of a homologous series of unbranched alkan-2-ones (having 3 to 16 carbon atoms) with known log P values (log P values determined on the basis of the retention times by linear interpolation between two successive alkanones).

Meloidogyne incognita = Meloidogyne incognita - test; type: in vivo; conditions: 20 ppm, lettuce, after 14 days
Method: 2. Meloidogyne incognita—Test Solvent: 125.0 parts by weight of acetone To produce a suitable preparation of active compound, 1 part by weight of active compound is mixed with the stated amount of solvent and the concentrate is diluted with water to the desired concentration. Vessels are filled with sand, active compound solution, an egg/larvae suspension of the southern root-knot nematode (Meloidogyne incognita) and lettuce seeds. The lettuce seeds germinate and the plants develop. The galls develop on the roots. After 14 days, the nematicidal efficacy in % is determined by the formation of galls. 100% means that no galls were found; 0% means that the number of galls on the treated plants corresponds to the untreated control.

Tetranychus urticae = Tetranychus urticae - spray test, OP-resistant (bean leaf discs, 6 days); type: in vivo; conditions: after 6 days; for pest or weed control at 500 g/ha: Tetranychus urticae, foliar, 144 h, read-out: efficacy (spider mites killed)
Method: 5. Tetranychus urticae—Spray Test, OP-Resistant
Solvent: 78.0 parts by weight of acetone
• 1.5 parts by weight of dimethylformamide Emulsifier: alkylaryl polyglycol ether
To produce a suitable preparation of active compound, 1 part by weight of active compound is dissolved using the stated parts by weight of solvent and made up with water containing an emulsifier concentration of 1000 ppm until the desired concentration is attained. To produce further test concentrations, the preparation is diluted with emulsifier-containing water.
Discs of bean leaves (Phaseolus vulgaris) infested with all stages of the greenhouse red spider mite (Tetranychus urticae) are sprayed with an active compound preparation of the desired concentration.
After 6 days, the efficacy in % is determined. 100% means that all the spider mites have been killed; 0% means that no spider mites have been killed.

Boophilus microplus = Boophilus microplus - injection test; type: in vivo; conditions: 20 μg/animal, injection into engorged adult female cattle ticks, assessed after 7 days
Method: 1. Boophilus microplus—Injection Test
Solvent: dimethyl sulphoxide
To produce a suitable preparation of active compound, 10 mg of active compound are mixed with 0.5 ml of solvent and the concentrate is diluted with solvent to the desired concentration.
1 μl of the active compound solution is injected into the abdomen of 5 engorged adult female cattle ticks (Boophilus microplus). The animals are transferred into dishes and kept in a climate-controlled room.
Efficacy is assessed after 7 days by laying of fertile eggs. Eggs which are not visibly fertile are stored in a climate-controlled cabinet until the larvae hatch after about 42 days. An efficacy of 100% means that none of the ticks has laid any fertile eggs; 0% means that all the eggs are fertile.

[2] = pH 2.7, HPLC, acidic range, pH 2.7, 0.1% aqueous formic acid and acetonitrile, read-out: log P(HCOOH)
[3] = pH 2.7, method [a], read-out: logP[a]
[4] = pH 7.8, HPLC, neutral range, pH 7.8, 0.001 molar aqueous ammonium hydrogencarbonate and acetonitrile, read-out: log P(neutral)
[5] = pH 7.8, method [b], read-out: logP[b]

Row | logP[a] [1] | logP[b] [1] | Structure (SMILES) | nematicidal efficacy (formation of galls) (Meloidogyne incognita) | efficacy (spider mites killed) (Tetranychus urticae; 500 g/ha) | further results
1 | 2.6 | 2.66 | Cc1cc(F)c(N2C(=O)CN(C(=O)N(C)CC(C)C)C2=O)cc1[S+]([O-])CC(F)(F)F (centres unmarked) [compound 126] | 100% | 100% | 
2 | 4.09 | 4.20 | O=C(Nc1ccc(F)cc1)N1CC(=O)N(c2cc(SCC(F)(F)F)c(Cl)cc2Cl)C1=O [compound 108] | 90% | 100% | 
3 | 3.10 | 3.02 | Cc1cc(F)c(N2C(=O)C(C)N(C(=O)NCC(C)C)C2=O)cc1[S+]([O-])CC(F)(F)F (mixture of isomers) [compound 89] |  | 100% | efficacy (laying of fertile eggs) (Boophilus microplus): 100%
4 | 3.37 | 3.29 | Cc1cc(F)c(N2C(=O)CN(C(=O)Nc3ccccn3)C2=O)cc1SCC(F)(F)F [compound 78] | 100% | 100% | 
5 | 2.99 | 3.03 | Cc1cc(F)c(N2C(=O)CN(C(=O)N(C)C3CC3)C2=O)cc1SCC(F)(F)F [compound 121] | 90% | 100% | 
6 | 3.29 | 3.19 | Cc1cc(Cl)c(N2C(=O)CN(C(=O)NC3CC3)C2=O)cc1SCC(F)(F)F [compound 50] | 90% | 100% | 
7 | 2.4 | 2.44 | Cc1cc(F)c(N2C(=O)CN(C(=O)N3CCS(=O)(=O)CC3)C2=O)cc1SCC(F)(F)F [compound 128] | 100% |  | 
8 | 3.25 | 3.26 | CCNC(=O)N1CC(=O)N(c2cc(SCC(F)(F)F)c(Cl)cc2Cl)C1=O [compound 103] | 90% | 90% | 
9 | 3.27 | 3.29 | Cc1cc(F)c(N2C(=O)CN(C(=O)N3CCC(F)(F)CC3)C2=O)cc1SCC(F)(F)F [compound 129] | 100% | 100% | 
10 | 2.08 | 2.16 | Cc1cc(F)c(N2C(=O)CN(C(=O)N(C)C3CC3)C2=O)cc1[S+]([O-])CC(F)(F)F (centres unmarked) [compound 131] | 100% | 100% | 
11 | 1.51 | 1.98 | Cc1cc(F)c(N2C(=O)CN(C(=O)Nc3cccnc3)C2=O)cc1[S+]([O-])CC(F)(F)F (centres unmarked) [compound 20] | 100% | 100% | 
12 | 3.3 | 3.37 | O=C(NC1CC1)N1CC(=O)N(c2cc(SCC(F)(F)F)c(Cl)cc2Cl)C1=O [compound 104] |  | 100% | 
13 | 2.95 | 2.88 | Cc1cc(Cl)c(N2C(=O)CN(C(=O)NCC(C)C)C2=O)cc1[S+]([O-])CC(F)(F)F (racemic) [compound 65] |  |  | efficacy (spider mites killed) (Tetranychus urticae; 100 g/ha): 90%
14 | 4.46 | 4.28 | Cc1cc(Cl)c(N2C(=O)CN(C(=O)Nc3cccc(Cl)c3)C2=O)cc1SCC(F)(F)F [compound 59] |  | 100% and 90% | 
15 | 3.81 | 3.89 | O=C(Nc1cccc(Cl)c1)N1CC(=O)N(c2cc([S+]([O-])CC(F)(F)F)c(Cl)cc2Cl)C1=O (racemic) [compound 117] |  | 100% | 
16 |  |  | Cc1cc(F)c(N2C(=O)CN(C(=O)N3CCOCC3)C2=O)cc1SCC(F)(F)F [Ex. No. 122, 3-[2-Fluoro-4-methyl-5-(2,2,2-trifluoroethylsulphanyl)phenyl]-1-(morpholine-4-carbonyl)imidazolidine-2,4-dione] | 90% |  | chromatographic logP [1, 2]: 2.61; chromatographic logP [1, 3]: 2.58; chromatographic logP [1, 4]: 2.58; chromatographic logP [1, 5]: 2.62; pest or weed control at 500 g/ha (Tetranychus urticae; 500 g/ha): 100%
17 | 2.56 | 2.59 | CCNC(=O)N1CC(=O)N(c2cc([S+]([O-])CC(F)(F)F)c(Cl)cc2Cl)C1=O (racemic) [compound 111] |  | 100% | 
18 | 3.86 | 3.89 | Cc1cc(C)c(N2C(=O)CN(C(=O)NC(C)(C)C)C2=O)cc1SCC(F)(F)F [compound 33] |  | 100% | 
19 | 3.12 | 3.05 | Cc1cc(F)c(N2C(=O)C(C)N(C(=O)NCc3ccccc3)C2=O)cc1[S+]([O-])CC(F)(F)F (mixture of isomers) [compound 90] |  | 100% | 
20 |  |  | Cc1cc(F)c(N2C(=O)N(C(=O)NC3CC3)C(C)(C)C2=O)cc1[S+]([O-])CC(F)(F)F (centres unmarked) [Ex. No. 84, N-Cyclopropyl-3-[2-fluoro-4-methyl-5-(2,2,2-trifluoroethylsulphinyl)phenyl]-5,5-dimethyl-2,4-dioxoimidazolidine-1-carboxamide] |  |  | chromatographic logP [1, 2]: 2.73; chromatographic logP [1, 3]: 2.73; chromatographic logP [1, 4]: 2.73; chromatographic logP [1, 5]: 2.73; pest or weed control at 500 g/ha (Tetranychus urticae; 500 g/ha): 100%
21 | 3.07 | 3.05 | Cc1cc(F)c(N2C(=O)N(C(=O)NCC(F)(F)F)C(C)(C)C2=O)cc1[S+]([O-])CC(F)(F)F (racemic) [compound 85] |  | 100% | 
22 | 2.95 | 2.91 | Cc1cc(Cl)c(N2C(=O)CN(C(=O)NCc3ccccc3)C2=O)cc1[S+]([O-])CC(F)(F)F (racemic) [compound 70] |  | 100% | 
23 | 3.99 | 3.98 | Cc1cc(F)c(N2C(=O)C(C)N(C(=O)NCC(C)C)C2=O)cc1SCC(F)(F)F (racemic) [compound 80] |  | 100% | 
24 |  |  | Cc1cc(F)c(N2C(=O)CN(C(=O)N3CCOCC3)C2=O)cc1[S+]([O-])CC(F)(F)F (centres unmarked) [Ex. No. 125, 3-[2-Fluoro-4-methyl-5-(2,2,2-trifluoroethylsulphinyl)phenyl]-1-(morpholine-4-carbonyl)imidazolidine-2,4-dione] | 100% |  | chromatographic logP [1, 2]: 1.79; chromatographic logP [1, 3]: 1.75; chromatographic logP [1, 4]: 1.75; chromatographic logP [1, 5]: 1.79; pest or weed control at 500 g/ha (Tetranychus urticae; 500 g/ha): 100%
25 | 2.41 | 2.46 | Cc1cc(F)c(N2C(=O)CN(C(=O)N3CCC(F)(F)CC3)C2=O)cc1[S+]([O-])CC(F)(F)F (centres unmarked) [compound 132] | 100% | 90% | 
26 | 3.78 | 3.68 | Cc1cc(F)c(N2C(=O)C(C)N(C(=O)NC(C)C)C2=O)cc1SCC(F)(F)F (centres unmarked) [compound 26] |  | 100% | 
27 | 2.14 | 2.12 | CCNC(=O)N1CC(=O)N(c2cc([S+]([O-])CC(F)(F)F)c(C)cc2C)C1=O (centres unmarked) [compound 32] |  | 100% | 
28 | 4.49 | 4.56 | O=C(Nc1cccc(Cl)c1)N1CC(=O)N(c2cc(SCC(F)(F)F)c(Cl)cc2Cl)C1=O [compound 109] |  | 90% | 
29 | 2.58 | 2.60 | Cc1cc(F)c(N2C(=O)CN(C(=O)N(C)C)C2=O)cc1SCC(F)(F)F [compound 130] | 100% | 100% and 90% | 
